For series [1], the target named is cytochrome P450 2C8-isoenzyme (Homo sapiens (Human), UniProt P10632). In words: Inhibition of CYP-2C8 (amodiaquine deethylation, human liver microsomes). The class given is in vitro ADME. As to conditions: amodiaquine 1 μM, 37° C. On the procedure: (§1) All assays are carried out on a robotic system in 96 well plates. The final incubation volume contains TRIS buffer (0.1 M), MgCl2 (5 mM), human liver microsomes (0.05 mg/mL), amodiaquine (1 μM) and the test compound at five different concentrations or no compound (high control) in duplicate (e.g. highest concentration 10-50 μM with subsequent serial 1:4 dilutions). Following a short preincubation period, reactions are started with the cofactor (NADPH, 1 mM) and stopped by cooling the incubation down to 8° C. and subsequently by addition of one volume of acetonitrile. An internal standard solution—the stable isotope d5-desethylamodiaquine—is added after quenching of incubations. Peak area analyte (=metabolite formed) and internal standard is determined by LC-MS/MS. The resulting peak area ratio analyte to internal standard in these incubations is compared to a control activity containing no test compound. Within each of the assay runs, the IC50 of a positive control inhibitor (Montelukast) is determined. Experimental IC50 values are calculated by least square regression according to the following equation: % control activity=(100% control activity/(1+(I/IC50)S))−B with I=inhibitor concentration; S=slope factor; B=background activity (lower plateau of the inhibition curve)
If the inhibition of the reaction is already >50% at the lowest concentration of the test compound, the IC50 is assigned “<lowest concentration tested” (usually <0.4 μM). If the inhibition of the reaction is still <50% at the highest concentration of the test compound, the IC50 is assigned “> highest concentration tested” (usually >50 μM).
(Liver microsomes are vesicles of endoplasmic reticulum, rich in cytochrome P450 enzymes.)

For a further series, the target named is human GPR40 receptor (Homo sapiens (Human), UniProt O14842). In words: IP1 accumulation measurements using the IPOne assay system. It is filed as cell-based. The following applies: 1321N1 cells stably expressing human GPR40, 1 h stimulation. As for the experimental part:
IP1 accumulation measurements using the IPOne assay system—1321N1 cells stably expressing human GPR40 receptor (Euroscreen, Belgium) are seeded 24 h before the assay in white 384-well plates in culture medium containing 10% FCS, 1% Na-Pyruvate and 400 μg/mL G418. IP1 is assayed according to the manufacturer's description (Cisbio Bioassays, France). In brief, the assay is started by substitution of the culture medium by stimulation buffer (Hepes 10 mM, CaCl2) 1 mM, MgCl2 0.5 mM, KCl 4.2 mM, NaCl 146 mM, glucose 5.5 mM and LiCl 50 mM, pH 7.4). Cells are stimulated for 1 h at 37° C., 5% CO2 by addition of the compounds that are diluted in stimulation buffer containing LiCl. Assays are stopped by adding HTRF-conjugates (IP1-d2 and Anti-IP1 cryptate Tb) and lysis buffer, provided by the manufacturer. After an incubation time of 1 h at room temperature plates are measured using an EnVision™, Perkin Elmer. The obtained fluorescence ratios at 665/615 […] are then used to calculate the pEC50 values using Assay Explorer 3.3 Software (Accelrys, Inc.) by interpolation using an IP1 reference curve and subsequent sigmoidal curve fitting allowing for a variable hill slope.

A further series can be described thus: Aqueous solubility. It is filed as physicochemical. As to conditions: aqueous buffer, kinetic from dmso stock, buffer pH 2.2, 24 h shaking, 2.5% DMSO. On the procedure:
The aqueous solubility of the compounds of the invention is determined by comparing the amount dissolved in buffer to the amount in an acetonitrile/water (1/1) solution. Starting from a 10 mM DMSO stock solution aliquots are diluted with acetonitrile/water (1/1) or buffer, respectively. After 24 h of shaking, the solutions are filtrated and analyzed by LC-UV. The amount dissolved in buffer is compared to the amount in the acetonitrile solution.
Solubility is usually being measured from 0.001 to 0.125 mg/mL at a DMSO concentration of 2.5%. If more than 90% of the compound is dissolved in buffer, the value is marked with “>”.

The target in series [2] is cytochrome P450 2C9-isoenzyme (Homo sapiens (Human), UniProt P11712). Nature of the series: Inhibition of CYP-2C9 (diclofenac hydroxylation, human liver microsomes). The class given is in vitro ADME. The following applies: diclofenac 10 μM, 37° C. On the procedure:
as §1, with “(0.1” for “(0.05”, “diclofenac (10” for “amodiaquine (1”, “(e.g.,” for “(e.g.”, “^13C6-hydroxydiclofenac—is” for “d5-desethylamodiaquine—is”, “(sulfaphenazole)” for “(Montelukast)”, “curve) […]” for “curve)”

As a reminder, the IC50 is the concentration needed to halve the response being measured. Lower therefore signals inhibition by little substance. For orientation: EC50 means the concentration giving half of the maximal effect. A high value points to weaker potency. As usually defined, the solubility is how much of the substance goes into solution per volume. Low values mean little dissolved substance, high ones much dissolved substance.

In brackets after ≈: the same amount, converted by molar mass. Some results are limits rather than exact numbers.

cytochrome P450 2C8-isoenzyme, sequence (P10632 whole entry): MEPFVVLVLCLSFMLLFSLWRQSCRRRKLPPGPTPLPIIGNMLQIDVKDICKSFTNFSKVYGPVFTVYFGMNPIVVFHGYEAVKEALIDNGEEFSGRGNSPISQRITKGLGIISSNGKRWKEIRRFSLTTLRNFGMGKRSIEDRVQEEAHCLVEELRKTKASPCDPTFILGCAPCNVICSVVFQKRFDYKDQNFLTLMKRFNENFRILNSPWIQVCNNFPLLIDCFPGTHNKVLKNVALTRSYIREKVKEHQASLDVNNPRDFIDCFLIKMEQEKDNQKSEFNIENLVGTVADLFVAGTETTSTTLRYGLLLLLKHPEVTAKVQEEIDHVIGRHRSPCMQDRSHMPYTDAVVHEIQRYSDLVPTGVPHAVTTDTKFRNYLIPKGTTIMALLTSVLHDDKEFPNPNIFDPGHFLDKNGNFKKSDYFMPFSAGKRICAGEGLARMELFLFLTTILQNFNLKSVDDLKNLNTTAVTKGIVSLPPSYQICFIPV
human GPR40 receptor, sequence (O14842 whole entry): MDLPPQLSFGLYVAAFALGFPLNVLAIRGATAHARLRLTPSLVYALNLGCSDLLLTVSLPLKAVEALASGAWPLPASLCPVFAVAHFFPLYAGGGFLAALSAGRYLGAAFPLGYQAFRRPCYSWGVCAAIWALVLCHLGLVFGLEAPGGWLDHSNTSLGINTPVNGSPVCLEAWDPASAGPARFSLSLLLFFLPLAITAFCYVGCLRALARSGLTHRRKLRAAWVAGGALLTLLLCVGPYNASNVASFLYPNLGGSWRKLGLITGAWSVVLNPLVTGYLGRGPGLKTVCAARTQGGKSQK
cytochrome P450 2C9-isoenzyme, sequence (P11712 whole entry): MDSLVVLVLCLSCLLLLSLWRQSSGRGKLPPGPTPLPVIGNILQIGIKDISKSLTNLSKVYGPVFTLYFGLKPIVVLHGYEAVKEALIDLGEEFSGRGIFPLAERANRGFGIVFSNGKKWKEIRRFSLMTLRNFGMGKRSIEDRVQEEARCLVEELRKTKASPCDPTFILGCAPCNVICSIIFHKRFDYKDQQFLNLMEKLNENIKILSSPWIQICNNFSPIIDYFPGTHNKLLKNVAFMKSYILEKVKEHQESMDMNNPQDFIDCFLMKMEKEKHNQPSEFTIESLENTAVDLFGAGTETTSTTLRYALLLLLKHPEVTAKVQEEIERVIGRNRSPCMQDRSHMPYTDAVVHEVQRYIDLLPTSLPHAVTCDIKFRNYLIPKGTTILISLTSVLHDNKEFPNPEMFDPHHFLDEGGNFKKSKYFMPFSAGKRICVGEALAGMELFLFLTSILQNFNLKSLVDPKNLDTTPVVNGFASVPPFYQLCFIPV

Turning to `Cc1cc(-c2nnn(C)n2)cc(C)c1-c1ccc(F)c2c1CC[C@H]2Nc1cc2c(cn1)[C@H](CC(=O)O)CO2` [Example 5, ((S)-6-{(R)-4-[2,6-Dimethyl-4-(2-methyl-2H-tetrazol-5-yl)-phenyl]-7-fluoro-indan-1-ylamino}-2,3-dihydro-furo[3,2-c]pyridin-3-yl)-acetic Acid], the IC50 is 35 µM in series [1] and more than 50 µM in series [2]. Also, the midpoint of the response on human GPR40 receptor, the EC50, lay at 6 nM. The solubility at 24 h in the series “Aqueous solubility” amounted to 47 µg/mL (≈ 91.3 µM).

On to `Cc1cc(OCCC(C)(C)O)cc(C)c1-c1ccc(F)c2c1CC[C@H]2Nc1cc2c(cn1)[C@H](CC(=O)O)CO2` [Example 1, ((S)-6-{(R)-7-Fluoro-4-[4-(3-hydroxy-3-methyl-butoxy)-2,6-dimethyl-phenyl]-indan-1-ylamino}-2,3-dihydro-furo[3,2-c]pyridin-3-yl)-acetic Acid], for which the values for the IC50 in series [1] and in series [2] were 30 µM and more than 50 µM, respectively. The molecule also had an EC50 on human GPR40 receptor of 15 nM. Moreover, the solubility at 24 h in “Aqueous solubility” was more than 94 µg/mL.

(Values after patent US10550127B1, “Indanylaminoazadihydrobenzofuranylacetic acids, pharmaceutical compositions for the treatment of diabetes” (Boehringer Ingelheim International GmbH, priority 2017, dated 2020).)
